Like-named read-outs stand apart in the source and are kept apart here.
How the values were obtained:
human ADAMTS-5 [1] = biological target: T1, human ADAMTS-5 (Homo sapiens (Human), UniProt Q9UNA0); conditions: read-out: hADAMTS-5 potency IC50
human TACE = human TACE (Homo sapiens (Human), UniProt P78536); conditions: read-out: TACE potency IC50
human ADAMTS-5 [2] = biological target: T1, human ADAMTS-5; conditions: read-out: hADAMTS-5 potency IC50; remark: listed apart in the source
Procedure: Finally, the fluorescence is read on the Envision (Perkin Elmer) after an incubation of 90 min at 37° C.

human MMP13 = human MMP13 (Homo sapiens (Human), UniProt P45452); conditions: read-out: hMMP-13 potency IC50
Procedure: Human MMP13 is preactivated by incubated the enzyme in the same buffer complemented with 1 mM freshly prepared p-Aminophenylmercuric acetate (AMPA) for 1 hour at 37° C.

T1 sequence (Q9UNA0 262-930): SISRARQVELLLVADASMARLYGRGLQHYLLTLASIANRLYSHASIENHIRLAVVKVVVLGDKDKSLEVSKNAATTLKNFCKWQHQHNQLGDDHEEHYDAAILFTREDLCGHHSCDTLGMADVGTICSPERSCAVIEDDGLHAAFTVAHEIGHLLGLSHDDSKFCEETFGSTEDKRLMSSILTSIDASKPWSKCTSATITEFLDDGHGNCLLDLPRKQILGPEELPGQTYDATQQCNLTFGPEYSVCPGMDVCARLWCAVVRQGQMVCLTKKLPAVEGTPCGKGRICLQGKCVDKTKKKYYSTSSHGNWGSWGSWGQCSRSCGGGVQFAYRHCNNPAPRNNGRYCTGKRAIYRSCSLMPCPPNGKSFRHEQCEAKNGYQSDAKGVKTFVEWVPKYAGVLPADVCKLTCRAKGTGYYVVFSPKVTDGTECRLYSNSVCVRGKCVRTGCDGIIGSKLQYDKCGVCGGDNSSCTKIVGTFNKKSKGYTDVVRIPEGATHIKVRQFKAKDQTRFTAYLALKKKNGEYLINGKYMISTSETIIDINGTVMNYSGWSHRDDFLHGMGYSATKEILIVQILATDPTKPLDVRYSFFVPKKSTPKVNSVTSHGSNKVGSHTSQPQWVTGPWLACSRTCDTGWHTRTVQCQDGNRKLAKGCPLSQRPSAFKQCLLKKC
Chain of human TACE (P78536 whole entry, looked up, change not shown): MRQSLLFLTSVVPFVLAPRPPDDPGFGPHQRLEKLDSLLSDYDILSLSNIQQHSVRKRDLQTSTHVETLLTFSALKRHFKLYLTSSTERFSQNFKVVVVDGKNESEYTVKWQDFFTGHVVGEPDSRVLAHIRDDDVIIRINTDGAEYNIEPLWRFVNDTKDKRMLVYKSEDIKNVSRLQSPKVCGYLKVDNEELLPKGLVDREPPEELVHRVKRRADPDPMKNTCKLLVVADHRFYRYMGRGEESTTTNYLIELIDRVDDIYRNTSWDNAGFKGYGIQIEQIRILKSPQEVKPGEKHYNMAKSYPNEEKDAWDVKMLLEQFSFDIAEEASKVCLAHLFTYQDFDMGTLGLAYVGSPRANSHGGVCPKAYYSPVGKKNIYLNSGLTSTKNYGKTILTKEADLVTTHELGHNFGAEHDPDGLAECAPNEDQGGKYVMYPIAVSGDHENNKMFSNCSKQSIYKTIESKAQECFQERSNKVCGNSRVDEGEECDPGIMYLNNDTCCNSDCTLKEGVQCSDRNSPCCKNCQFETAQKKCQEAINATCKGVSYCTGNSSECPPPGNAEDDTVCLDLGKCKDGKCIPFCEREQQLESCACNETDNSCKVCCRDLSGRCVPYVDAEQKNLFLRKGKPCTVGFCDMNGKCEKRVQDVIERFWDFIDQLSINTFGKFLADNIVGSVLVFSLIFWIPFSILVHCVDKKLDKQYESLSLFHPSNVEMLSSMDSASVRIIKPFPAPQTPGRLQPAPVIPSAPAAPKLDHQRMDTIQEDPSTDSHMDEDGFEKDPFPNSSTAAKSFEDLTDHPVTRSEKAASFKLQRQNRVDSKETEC

Row | SMILES | IC50 (human ADAMTS-5 [1]) | IC50 (human TACE) | IC50 (human ADAMTS-5 [2]) | IC50 (human MMP13)
1 | O=C1NC(=O)C(CCC(=O)N2CCN(c3ccc4occc4c3)CC2)(c2ccccc2)N1 (stereo not shown) [compound 25, 5-[3-[4-(benzofuran-5-yl)piperazin-1-yl]-3-oxo-propyl]-5-phenyl-imidazolidine-2,4-dione] | 138 nM | > 2000 nM | – | –
2 | O=C1NC(=O)C(CCC(=O)N2CCN(c3ccc4scnc4c3)CC2)(c2ccccc2)N1 (stereo not shown) [compound 26, 5-[3-[4-(1,3-benzothiazol-5-yl)piperazin-1-yl]-3-oxo-propyl]-5-phenyl-imidazolidine-2,4-dione] | 706 nM | > 10000 nM | – | –
3 | CC1(CCC(=O)N2CCN(c3ccccc3C#N)CC2)NC(=O)NC1=O (stereo not shown) [compound 29] | > 12000 nM | – | > 4000 nM | –
4 | CC1(CCC(=O)N2CCN(c3ccccc3F)CC2)NC(=O)NC1=O (stereo not shown) [compound 30, 5-[3-[4-(2-fluorophenyl)piperazin-1-yl]-3-oxo-propyl]-5-methyl-imidazolidine-2,4-dione] | > 4000 nM | – | > 4000 nM | –
5 | Cc1ccccc1N1CCN(C(=O)CCC2(C(C)C)NC(=O)NC2=O)CC1 (stereo not shown) [compound 32, 5-isopropyl-5-[3-[4-(o-tolyl)piperazin-1-yl]-3-oxo-propyl]imidazolidine-2,4-dione] | 385 nM | > 4000 nM | – | –
6 | CC1(CCC(=O)N2CCN(c3ccc(F)c(F)c3)CC2)NC(=O)NC1=O (stereo not shown) [compound 37, 5-[3-[4-(3,4-difluorophenyl)piperazin-1-yl]-3-oxo-propyl]-5-methyl-imidazolidine-2,4-dione] | 229 nM | > 20000 nM | – | –
7 | Cc1ccc(C)c(N2CCN(C(=O)CCC3(C)NC(=O)NC3=O)CC2)c1 (stereo not shown) [compound 39, 5-[3-[4-(2,5-dimethylphenyl)piperazin-1-yl]-3-oxo-propyl]-5-methyl-imidazolidine-2,4-dione] | 570 nM | 588 nM | – | –
8 | CC1(CCC(=O)N2CCN(c3cccnc3)CC2)NC(=O)NC1=O (stereo not shown) [compound 43, 5-methyl-5-[3-oxo-3-[4-(3-pyridyl)piperazin-1-yl]propyl]imidazolidine-2,4-dione] | 1530 nM | > 20000 nM | – | > 20000 nM
9 | O=C1NC(=O)C(CCC(=O)N2CCN(c3cccnc3)CC2)(c2ccccc2)N1 (stereo not shown) [compound 45, 5-[3-oxo-3-[4-(3-pyridyl)piperazin-1-yl]propyl]-5-phenyl-imidazolidine-2,4-dione] | 204 nM | > 20000 nM | – | –
10 | CC1(CCC(=O)N2CCN(c3ccc(F)c(Cl)c3)CC2)NC(=O)NC1=O (stereo not shown) [compound 52, 5-[3-[4-(3-chloro-4-fluoro-phenyl)piperazin-1-yl]-3-oxo-propyl]-5-methyl-imidazolidine-2,4-dione] | 281 nM | > 20000 nM | – | –
11 | Cc1c(F)cccc1N1CCN(C(=O)CCC2(C)NC(=O)NC2=O)CC1 (stereo not shown) [compound 60, 5-[3-[4-(3-fluoro-2-methyl-phenyl)piperazin-1-yl]-3-oxo-propyl]-5-methyl-imidazolidine-2,4-dione] | 1160 nM | > 20000 nM | – | > 20000 nM
12 | Cc1cc(F)ccc1N1CCN(C(=O)CCC2(C)NC(=O)NC2=O)CC1 (stereo not shown) [compound 61, 5-[3-[4-(4-fluoro-2-methyl-phenyl)piperazin-1-yl]-3-oxo-propyl]-5-methyl-imidazolidine-2,4-dione] | 2940 nM | – | – | –
13 | CC1CN(C(=O)CCC2(c3ccccc3)NC(=O)NC2=O)CCN1c1ccccc1 (stereo not shown) [compound 62, 5-[3-(3-methyl-4-phenyl-piperazin-1-yl)-3-oxo-propyl]-5-phenyl-imidazolidine-2,4-dione] | 293 nM | > 20000 nM | – | –
14 | CC1CN(C(=O)CCC2(C)NC(=O)NC2=O)CCN1c1ccccc1 (stereo not shown) [compound 63, 5-methyl-5-[3-(3-methyl-4-phenyl-piperazin-1-yl)-3-oxo-propyl]imidazolidine-2,4-dione] | 1240 nM | > 20000 nM | – | –
15 | CC1(CCC(=O)N2CCN(c3ccc(Cl)c(Cl)c3)CC2)NC(=O)NC1=O (stereo not shown) [compound 67, 5-[3-[4-(3,4-dichlorophenyl)piperazin-1-yl]-3-oxo-propyl]-5-methyl-imidazolidine-2,4-dione] | 152 nM | > 4000 nM | – | > 3500 nM
16 | CC1(CCC(=O)N2CCN(c3cc(F)cc(Cl)c3)CC2)NC(=O)NC1=O (stereo not shown) [compound 117, 5-[3-[4-(3-chloro-5-fluoro-phenyl)piperazin-1-yl]-3-oxo-propyl]-5-methyl-imidazolidine-2,4-dione] | 211 nM | > 4000 nM | – | > 4000 nM
17 | Cc1ccccc1N1CCN(C(=O)CCC2(CN(C)C)NC(=O)NC2=O)CC1 (stereo not shown) [compound 119, 5-(dimethylaminomethyl)-5-[3-[4-(o-tolyl)piperazin-1-yl]-3-oxo-propyl]imidazolidine-2,4-dione] | 1740 nM | – | – | –
18 | COc1cccc(C2(CCC(=O)N3CCN(c4cccc(Cl)c4)CC3)NC(=O)NC2=O)c1 (stereo not shown) [compound 123, 5-[3-[4-(3-chlorophenyl)piperazin-1-yl]-3-oxo-propyl]-5-(3-methoxyphenyl)imidazolidine-2,4-dione] | 95 nM | 1640 nM | – | 919 nM
19 | N#Cc1ccc(C2(CCC(=O)N3CCN(c4cccc(Cl)c4)CC3)NC(=O)NC2=O)cc1 (stereo not shown) [compound 125, 4-[4-[3-[4-(3-chlorophenyl)piperazin-1-yl]-3-oxo-propyl]-2,5-dioxo-imidazolidin-4-yl]benzonitrile] | 53 nM | 1800 nM | – | 2120 nM
20 | CC1CN(C(=O)CCC2(c3cccnc3)NC(=O)NC2=O)CCN1c1ccc(Cl)cc1 (stereo not shown) [compound 126, 5-[3-[4-(4-chlorophenyl)-3-methyl-piperazin-1-yl]-3-oxo-propyl]-5-(3-pyridyl)imidazolidine-2,4-dione] | 106 nM | > 4000 nM | – | > 4000 nM
21 | C[C@@H]1CN(C(=O)CCC2(C3CC3)NC(=O)NC2=O)CCN1c1ccccc1 (stereo partly drawn) [compound 128, 5-cyclopropyl-5-[3-[(3R)-3-methyl-4-phenyl-piperazin-1-yl]-3-oxo-propyl]imidazolidine-2,4-dione] | 1170 nM | > 20000 nM | – | > 20000 nM
22 | Cc1ccc(F)cc1N1CCN(C(=O)CCC2(C3CC3)NC(=O)NC2=O)CC1C (stereo not shown) [compound 129, 5-cyclopropyl-5-[3-[4-(5-fluoro-2-methyl-phenyl)-3-methyl-piperazin-1-yl]-3-oxo-propyl]imidazolidine-2,4-dione] | 150 nM | > 4000 nM | – | > 20000 nM
23 | C[C@@H]1CN(C(=O)CCC2(c3ccccc3)NC(=O)NC2=O)CCN1c1ccccc1 (stereo partly drawn) [compound 131, 5-[3-[(3R)-3-methyl-4-phenyl-piperazin-1-yl]-3-oxo-propyl]-5-phenyl-imidazolidine-2,4-dione] | 1260 nM | – | – | –
24 | Cc1cccc(C2(CCC(=O)N3CCN(c4cccc(Cl)c4)CC3)NC(=O)NC2=O)c1 (stereo not shown) [compound 141, 5-[3-[4-(3-chlorophenyl)piperazin-1-yl]-3-oxo-propyl]-5-(m-tolyl)imidazolidine-2,4-dione] | 119 nM | – | – | –
25 | CC1CN(C(=O)CCC2(C3CC3)NC(=O)NC2=O)CCN1c1cccc(F)c1 (stereo not shown) [compound 149, 5-cyclopropyl-5-[3-[4-(3-fluorophenyl)-3-methyl-piperazin-1-yl]-3-oxo-propyl]imidazolidine-2,4-dione] | 79 nM | – | – | –
26 | CC1CN(C(=O)CCC2(C3CC3)NC(=O)NC2=O)CCN1c1cccc(Cl)c1 (stereo not shown) [compound 150, 5-[3-[4-(3-chlorophenyl)-3-methyl-piperazin-1-yl]-3-oxo-propyl]-5-cyclopropyl-imidazolidine-2,4-dione] | 95 nM | – | – | –
